These results are taken from patent publication US8084457B2, “Pharmaceutically active 4,6-disubstituted aminopyrimidine derivatives as modulators of protein kinases” (Lead Discovery Center GmbH, priority 2003, dated 2011).

One assay has as its target T1, CDK2/CyclinA (Homo sapiens, UniProt P24941).
T1 construct: purchased Proqinase
Briefly: Kinase assay determining CDK2/CyclinA activity. It counts as biochemical. Here is the method:
Kinase Assays Determining CDK2/CyclinA and CDK5/p35 Activity:
Kinase assays were performed as described by the manufacturers recommendations (Proqinase for CDK2/CyclinA and Upsate for CDK5/p35).

The target in a further assay is GSK-3β (Homo sapiens, UniProt P49841). As to the kind of experiment: General kinase assay, selectivity panel: GSK-3β. The format is biochemical. The settings on record: 10 μM of compound, in comparison to DMSO (0% inhibition). The procedure, abridged: (§1)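 Values are percent inhibition at 10 μM compound versus DMSO, derived from scintillation counts of 33P-labelled substrate retained on phosphoric-acid-washed filter plates. Each kinase reacted with substrate, ATP and [γ-33P]ATP for one hour at room temperature before EDTA quench.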

The next assay concerns the target CDK1 (Homo sapiens, UniProt P06493). Briefly: General kinase assay, selectivity panel: CDK1. The format is biochemical. Particulars: 10 μM of compound, in comparison to DMSO (0% inhibition). A digest of the protocol: as §1
The target of a further assay is p56 Lck (Homo sapiens, UniProt P06239). Briefly: General kinase assay, selectivity panel: p56 Lck. It counts as biochemical. The settings on record: 10 μM of compound, in comparison to DMSO (0% inhibition). A digest of the protocol:
as §1

The target in a further assay is EGFR (Homo sapiens, UniProt P00533). As to the kind of experiment: General kinase assay, selectivity panel: EGFR. The settings on record: 10 μM of compound, in comparison to DMSO (0% inhibition). It counts as biochemical. The procedure, abridged:
as §1

Another assay concerns PM1 cells. Briefly: Growth assay using Alamar Blue. The format is cell-based. How it is done: Growth Assay Using Alamar Blue™:
PM1 cells were seeded in 12-well plates at a density of 1.5×10^5 per well with RPMI 1640 containing 10% FCS (fetal calf serum), 1% L-Glutamine and 1% Na-Pyruvate (Sigma). Cells were incubated with compound for 2-3 days (37° C., 6% CO2) followed by subsequent splitting and renewing of compound-containing medium. At each of these time points an aliquot of cells served as data point for relative growth (given in % of the DMSO control [=100%]). The cell number was determined by addition of 10 μL Alamar Blue™ (Biozol) to 100 μL cell aliquots following the manufacturer's instructions.

Another assay concerns the target RSK1 (Homo sapiens, UniProt Q15418). Briefly: General kinase assay, selectivity panel: RSK1. It counts as biochemical. Particulars: 10 μM of compound, in comparison to DMSO (0% inhibition). How it is done: The inhibitory effect of compounds according to the present invention on the activity of protein kinases, depicted in Table 1, can be measured according to the following protocol:
Pipettinq Sequence: • 1) Add 10 μl 4 fold concentrated Substrate+4 fold concentrated ATP in 3 fold concentrated Reaction Buffer to each well of Assay Plate • 2) Add 10 μl 4 fold concentrated inhibitor in 4% DMSO in H2O to each well except to C− and C+ wells • 3) Add 10 μl 4% DMSO in H2O to C− and C+ wells • 4) Add 10 μl 500 mM EDTA in H2O to − wells • 5) Add 10 μl 50 μCi/ml Adenosine 5′-[γ-^33P]triphosphate in H2O to each well • 6) Add 10 μl 4 fold concentrated kinase in Reaction Buffer to each well • 7) Incubate 1 hr at room temperature • 8) Add 10 μl 50 mM EDTA in H2O to each well except to C− wells • 9) Prepare MAPH plates by adding 200 μl 0.75% H3PO4 to each well • 10) Exhaust 0.75% H3PO4 using Millipore vacuum station • 11) Add 60 μl 0.75% H3PO4 to each well of MAPH Filter Plate • 12) Transfer 30 μl sample per well from Assay Plate to corresponding well of MAPH Filter Plate • 13) Incubate 30 min at room temperature • 14) Wash each well of MAPH Filter Plates 3× with 200 μl 0.75% H3PO4 using Millipore vacuum station. • 15) Add 20 μl Scintillation Liquid to each well of MAPH Filter Plate • 16) Seal MAPH Filter Plate • 17) Store MAPH Filter Plate 30 min in darkness • 18) Quantify radioactivity
The activity of these protein kinases is depicted as % inhibition in the presence of 10 μM of compound in comparison to DMSO (0% inhibition).

The subject of another assay is PDGFR. As to the kind of experiment: General kinase assay, selectivity panel: PDGFR. The format is biochemical. The settings on record: 10 μM of compound, in comparison to DMSO (0% inhibition). A digest of the protocol: as §1
Another assay deals with c-Kit (Homo sapiens, UniProt P10721). Briefly: General kinase assay, selectivity panel: c-Kit. The format is biochemical. The settings on record: 10 μM of compound, in comparison to DMSO (0% inhibition). A digest of the protocol:
as §1

Chain of GSK-3β (P49841 whole entry, species assumed): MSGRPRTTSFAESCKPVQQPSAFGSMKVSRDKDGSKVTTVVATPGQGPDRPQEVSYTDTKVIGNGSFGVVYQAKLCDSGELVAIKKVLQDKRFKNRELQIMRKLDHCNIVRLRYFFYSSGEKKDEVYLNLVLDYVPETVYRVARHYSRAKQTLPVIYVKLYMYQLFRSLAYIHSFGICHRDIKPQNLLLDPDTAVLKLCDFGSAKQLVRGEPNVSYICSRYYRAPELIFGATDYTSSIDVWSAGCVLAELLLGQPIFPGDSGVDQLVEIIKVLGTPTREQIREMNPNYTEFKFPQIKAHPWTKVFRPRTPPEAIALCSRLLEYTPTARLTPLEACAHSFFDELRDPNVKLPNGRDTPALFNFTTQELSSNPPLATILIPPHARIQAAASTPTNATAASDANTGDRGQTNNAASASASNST
Chain of c-Kit (P10721 26-976): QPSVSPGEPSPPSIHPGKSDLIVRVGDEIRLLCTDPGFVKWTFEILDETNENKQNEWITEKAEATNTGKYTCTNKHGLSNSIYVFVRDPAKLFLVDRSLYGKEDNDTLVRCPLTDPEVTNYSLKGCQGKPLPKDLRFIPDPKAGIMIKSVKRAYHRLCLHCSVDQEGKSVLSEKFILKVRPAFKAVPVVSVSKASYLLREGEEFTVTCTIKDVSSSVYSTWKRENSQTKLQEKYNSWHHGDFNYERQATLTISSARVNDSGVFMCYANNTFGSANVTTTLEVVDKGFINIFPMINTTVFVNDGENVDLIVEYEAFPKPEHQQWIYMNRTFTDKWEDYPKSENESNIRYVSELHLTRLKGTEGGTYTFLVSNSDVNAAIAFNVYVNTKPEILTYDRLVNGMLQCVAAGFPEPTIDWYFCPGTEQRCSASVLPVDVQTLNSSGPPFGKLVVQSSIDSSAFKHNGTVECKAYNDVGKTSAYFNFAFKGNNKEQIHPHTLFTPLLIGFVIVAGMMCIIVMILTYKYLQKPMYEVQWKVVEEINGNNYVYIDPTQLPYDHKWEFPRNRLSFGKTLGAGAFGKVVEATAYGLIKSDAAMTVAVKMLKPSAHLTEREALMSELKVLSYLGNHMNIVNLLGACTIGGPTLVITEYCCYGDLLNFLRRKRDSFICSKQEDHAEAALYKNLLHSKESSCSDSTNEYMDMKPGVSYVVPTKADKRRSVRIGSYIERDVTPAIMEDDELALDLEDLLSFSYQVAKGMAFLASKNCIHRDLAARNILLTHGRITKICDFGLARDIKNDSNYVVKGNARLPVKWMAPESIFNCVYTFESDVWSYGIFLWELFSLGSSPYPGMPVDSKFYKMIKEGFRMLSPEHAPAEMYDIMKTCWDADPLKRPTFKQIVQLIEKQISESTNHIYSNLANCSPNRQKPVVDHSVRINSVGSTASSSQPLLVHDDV
Chain of CDK1 (P06493 whole entry, species assumed): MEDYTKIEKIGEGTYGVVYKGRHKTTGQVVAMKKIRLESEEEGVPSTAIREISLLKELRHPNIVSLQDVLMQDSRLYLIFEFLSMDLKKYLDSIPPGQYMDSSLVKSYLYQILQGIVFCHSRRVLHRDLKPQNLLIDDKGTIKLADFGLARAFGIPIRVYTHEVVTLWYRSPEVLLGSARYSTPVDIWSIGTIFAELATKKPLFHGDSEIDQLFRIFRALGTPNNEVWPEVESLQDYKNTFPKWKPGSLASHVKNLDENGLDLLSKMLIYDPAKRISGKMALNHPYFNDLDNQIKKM
Chain of CDK1 (P14635 whole entry partner, species assumed): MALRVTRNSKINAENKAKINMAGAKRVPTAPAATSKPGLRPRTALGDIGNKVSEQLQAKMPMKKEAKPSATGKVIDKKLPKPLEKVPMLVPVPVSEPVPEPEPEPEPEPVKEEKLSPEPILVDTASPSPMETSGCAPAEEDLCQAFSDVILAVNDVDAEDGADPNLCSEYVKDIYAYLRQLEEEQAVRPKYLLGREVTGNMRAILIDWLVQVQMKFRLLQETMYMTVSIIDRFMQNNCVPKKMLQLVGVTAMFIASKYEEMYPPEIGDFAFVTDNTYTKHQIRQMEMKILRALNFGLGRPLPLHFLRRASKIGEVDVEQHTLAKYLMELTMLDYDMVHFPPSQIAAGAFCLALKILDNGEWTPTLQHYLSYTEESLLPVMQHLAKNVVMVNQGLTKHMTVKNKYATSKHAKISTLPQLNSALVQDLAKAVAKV
Chain of EGFR (P00533 25-1210, species assumed): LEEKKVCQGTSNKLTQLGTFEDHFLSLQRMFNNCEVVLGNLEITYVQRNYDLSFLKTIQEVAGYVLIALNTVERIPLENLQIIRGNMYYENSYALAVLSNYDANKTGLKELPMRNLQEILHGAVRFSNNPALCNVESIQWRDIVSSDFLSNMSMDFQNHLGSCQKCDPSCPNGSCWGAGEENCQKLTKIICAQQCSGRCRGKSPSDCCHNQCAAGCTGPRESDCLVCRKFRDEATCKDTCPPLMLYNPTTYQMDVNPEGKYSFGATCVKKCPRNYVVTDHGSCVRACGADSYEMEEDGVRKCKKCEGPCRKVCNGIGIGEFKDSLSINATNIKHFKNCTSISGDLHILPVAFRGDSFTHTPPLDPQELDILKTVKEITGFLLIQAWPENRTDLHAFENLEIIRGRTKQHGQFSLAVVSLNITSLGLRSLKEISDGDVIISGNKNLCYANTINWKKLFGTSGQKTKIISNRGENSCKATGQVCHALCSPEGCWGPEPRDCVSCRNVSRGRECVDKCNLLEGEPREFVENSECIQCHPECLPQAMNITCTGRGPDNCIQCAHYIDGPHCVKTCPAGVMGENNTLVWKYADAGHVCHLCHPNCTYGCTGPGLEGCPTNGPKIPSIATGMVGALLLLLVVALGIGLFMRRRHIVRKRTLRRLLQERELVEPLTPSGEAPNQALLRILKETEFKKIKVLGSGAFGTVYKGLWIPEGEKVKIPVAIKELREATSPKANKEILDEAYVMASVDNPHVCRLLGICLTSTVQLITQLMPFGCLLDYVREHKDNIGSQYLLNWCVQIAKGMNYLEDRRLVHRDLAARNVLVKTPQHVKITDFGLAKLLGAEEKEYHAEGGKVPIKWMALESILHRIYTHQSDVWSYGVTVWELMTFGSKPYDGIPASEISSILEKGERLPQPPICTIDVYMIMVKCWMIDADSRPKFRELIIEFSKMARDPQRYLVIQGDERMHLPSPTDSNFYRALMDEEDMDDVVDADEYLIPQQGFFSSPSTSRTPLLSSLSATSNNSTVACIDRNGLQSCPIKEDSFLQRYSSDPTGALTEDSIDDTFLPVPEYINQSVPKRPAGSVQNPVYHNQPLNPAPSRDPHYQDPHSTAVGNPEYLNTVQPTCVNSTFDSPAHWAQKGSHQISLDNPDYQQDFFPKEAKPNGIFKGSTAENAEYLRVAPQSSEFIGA
Chain of p56 Lck (P06239 whole entry): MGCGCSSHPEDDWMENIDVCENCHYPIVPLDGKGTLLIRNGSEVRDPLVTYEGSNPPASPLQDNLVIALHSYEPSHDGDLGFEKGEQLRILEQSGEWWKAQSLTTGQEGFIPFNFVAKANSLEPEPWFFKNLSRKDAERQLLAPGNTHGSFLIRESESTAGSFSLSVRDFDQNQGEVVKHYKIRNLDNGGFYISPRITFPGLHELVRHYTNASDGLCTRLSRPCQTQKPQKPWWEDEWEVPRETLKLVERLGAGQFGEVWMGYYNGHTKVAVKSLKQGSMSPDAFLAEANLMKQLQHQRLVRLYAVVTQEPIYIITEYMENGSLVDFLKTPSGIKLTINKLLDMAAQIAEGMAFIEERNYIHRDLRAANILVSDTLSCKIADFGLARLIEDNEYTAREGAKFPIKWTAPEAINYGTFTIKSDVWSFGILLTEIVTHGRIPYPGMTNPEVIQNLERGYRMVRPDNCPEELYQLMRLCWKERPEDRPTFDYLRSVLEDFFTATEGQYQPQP
Chain of RSK1 (Q15418 whole entry, species assumed): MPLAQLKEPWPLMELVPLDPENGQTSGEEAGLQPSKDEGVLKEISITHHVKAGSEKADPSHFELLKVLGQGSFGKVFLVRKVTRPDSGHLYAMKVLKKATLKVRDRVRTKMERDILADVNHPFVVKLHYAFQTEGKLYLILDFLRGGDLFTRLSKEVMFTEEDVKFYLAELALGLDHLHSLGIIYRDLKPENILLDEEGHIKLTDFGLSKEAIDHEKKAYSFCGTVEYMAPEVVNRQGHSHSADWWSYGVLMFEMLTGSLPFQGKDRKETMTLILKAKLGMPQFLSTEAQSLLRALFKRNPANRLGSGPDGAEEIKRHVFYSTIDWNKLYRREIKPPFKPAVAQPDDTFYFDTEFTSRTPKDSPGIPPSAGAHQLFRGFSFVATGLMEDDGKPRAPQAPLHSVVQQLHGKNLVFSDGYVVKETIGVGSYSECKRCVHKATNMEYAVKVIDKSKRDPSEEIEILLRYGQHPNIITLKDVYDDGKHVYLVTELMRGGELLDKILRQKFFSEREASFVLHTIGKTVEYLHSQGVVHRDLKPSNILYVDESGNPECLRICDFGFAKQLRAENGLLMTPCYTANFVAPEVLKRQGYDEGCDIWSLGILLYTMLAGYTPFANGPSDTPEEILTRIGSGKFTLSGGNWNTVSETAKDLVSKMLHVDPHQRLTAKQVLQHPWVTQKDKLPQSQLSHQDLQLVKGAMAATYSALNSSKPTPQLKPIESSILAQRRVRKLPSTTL

As to `COc1ccccc1-c1cc(Nc2ccc(N3CCCC3=O)cc2)ncn1` [Compound 9], on CDK2/CyclinA, the “CDK2 inhibition (in words)” value is recorded as “tendency to inhibit potently”. In addition, at GSK-3β, the “GSK-3β (% inhibition)” value is “b (inhibition between 80 and 50%: b)”. Moreover, the “CDK1 (% inhibition)” value on CDK1 is “a (inhibition greater than 80%: a)”. The “p56 Lck (% inhibition)” value on p56 Lck is “b (inhibition between 80 and 50%: b)”. For the same compound, at EGFR, the “EGFR (% inhibition)” value was “b (inhibition between 80 and 50%: b)”. Also, in the assay on PM1 cells, the “effect on growth of PM1 cells (in words)” value is given as “affect severely”. The “RSK1 (% inhibition)” value at RSK1 was “c (inhibition between 50 and 30%: c)”. The “PDGFR (% inhibition)” value with PDGFR is “c (inhibition between 50 and 30%: c)”. Further, on c-Kit, the “c-Kit (% inhibition)” value was “c (inhibition between 50 and 30%: c)”.
With `COC(=O)CN(c1ccc(Nc2cc(-c3ccccc3OC)ncn2)cc1)S(=O)(=O)c1ccc(C)cc1` [Compound 28], the “CDK2 inhibition (in words)” value at CDK2/CyclinA is “tendency to inhibit potently”. The “effect on growth of PM1 cells (in words)” value in the assay on PM1 cells is “affect severely”.
